Data published in patent publication US9169254B2, “Spiroimidazolone derivative” (Chugai Seiyaku Kabushiki Kaisha, priority 2009, dated 2015).

molecular target: T1, human PTH1 receptor (Homo sapiens, UniProt Q03431); assay: In vitro cAMP signal activity in HKRK-B7 cells (LLC-PK1 cells overexpressing the human PTH1 receptor); format: cell-based; settings: HKRK-B7 cells; compound at 1×10^−3 M; cAMP produced as percentage of that produced by hPTH(1-34) at 100 nM
T1 sequence (Q03431 27-593): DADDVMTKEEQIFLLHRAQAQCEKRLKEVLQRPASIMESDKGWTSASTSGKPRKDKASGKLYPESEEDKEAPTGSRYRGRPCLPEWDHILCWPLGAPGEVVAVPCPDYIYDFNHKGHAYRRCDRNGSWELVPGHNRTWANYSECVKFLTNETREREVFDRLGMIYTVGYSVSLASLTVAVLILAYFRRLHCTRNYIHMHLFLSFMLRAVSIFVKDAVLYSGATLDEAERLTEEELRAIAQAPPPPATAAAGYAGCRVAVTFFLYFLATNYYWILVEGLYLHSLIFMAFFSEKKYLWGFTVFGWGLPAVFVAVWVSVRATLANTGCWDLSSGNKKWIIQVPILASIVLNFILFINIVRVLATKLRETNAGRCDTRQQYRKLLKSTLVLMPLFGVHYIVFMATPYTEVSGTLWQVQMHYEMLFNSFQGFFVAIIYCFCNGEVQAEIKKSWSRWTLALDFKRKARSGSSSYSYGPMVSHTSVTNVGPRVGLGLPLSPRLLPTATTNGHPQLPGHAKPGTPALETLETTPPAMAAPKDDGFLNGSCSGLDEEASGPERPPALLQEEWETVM

| cAMP production activity (%) | SMILES |
| --- | --- |
| 49 | O=C1NC(C2CCCCCC2)=NC12CCN(S(=O)(=O)/C=C/c1cccc3c1ccn3C[C@H](O)CO)CC2 [Compound 240, 2-Cycloheptyl-8-{(E)-2-[1-((S)-2,3-dihydroxy-propyl)-1H-indol-4-yl]-ethenesulfonyl}-1,3,8-triaza-spiro[4.5]dec-1-en-4-one] |
| 44 | O=C1NC(C2CCC(F)(F)CC2)=NC12CCN(S(=O)(=O)/C=C/c1cccc3c1ccn3C[C@H](O)CO)CC2 [Compound 241, 2-(4,4-difluoro-cyclohexyl)-8-{(E)-2-[1-((S)-2,3-dihydroxy-propyl)-1H-indol-4-yl]-ethenesulfonyl}-1,3,8-triaza-spiro[4.5]dec-1-en-4-one] |
| 75 | Cc1cc(OC[C@H](O)CO)cc(C)c1/C=C/S(=O)(=O)N1CCC2(CC1)N=C(c1ccc(F)c(C(F)(F)F)c1)NC2=O [Compound 242, 8-{(E)-2-[4-((R)-2,3-Dihydroxy-propoxy)-2,6-dimethyl-phenyl]-ethenesulfonyl}-2-(4-fluoro-3-trifluoromethyl-phenyl)-1,3,8-triaza-spiro[4.5]dec-1-en-4-one] |
| 80 | Cc1cc(OC[C@H](O)CO)cc(C)c1/C=C/S(=O)(=O)N1CCC2(CC1)N=C(c1cccc(C(F)(F)F)c1F)NC2=O [Compound 243, 8-{(E)-2-[4-((R)-2,3-dihydroxy-propoxy)-2,6-dimethyl-phenyl]-ethenesulfonyl}-2-(2-fluoro-3-trifluoromethyl-phenyl)-1,3,8-triaza-spiro[4.5]dec-1-en-4-one] |
| 83 | Cc1cc(C(=O)N2CCC(O)CC2)cc(C)c1/C=C/S(=O)(=O)N1CCC2(CC1)N=C(c1cccc(C(F)(F)F)c1F)NC2=O [Compound 244, 2-(2-fluoro-3-trifluoromethyl-phenyl)-8-{(E)-2-[4-(4-hydroxy-piperidine-1-carbonyl)-2,6-dimethyl-phenyl]-ethenesulfonyl}-1,3,8-triaza-spiro[4.5]dec-1-en-4-one] |
| 34 | CC1(C)OC[C@H](Cn2ccc3c(/C=C/S(=O)(=O)N4CCC5(CC4)N=C(C4CCC(C(F)(F)F)CC4)NC5=O)cccc32)O1 (stereo partly drawn) [Compound 245, 8-{(E)-2-[1-((S)-2,2-dimethyl-[1,3]dioxolan-4-ylmethyl)-1H-indol-4-yl]-ethenesulfonyl}-2-(4-trifluoromethyl-cyclohexyl)-1,3,8-triaza-spiro[4.5]dec-1-en-4-one] |
| 39 | CC1(C)OCC(Cn2ccc3c(/C=C/S(=O)(=O)N4CCC5(CC4)N=C(C4CCOCC4)NC5=O)cccc32)O1 (stereo not shown) [Compound 246, 8-{(E)-2-[1-(2,2-dimethyl-[1,3]dioxolan-4-ylmethyl)-1H-indol-4-yl]-ethenesulfonyl}-2-(tetrahydro-pyran-4-yl)-1,3,8-triaza-spiro[4.5]dec-1-en-4-one] |
| 66 | Cc1cc(C(=O)N2CCCC2)ccc1/C=C/S(=O)(=O)N1CCC2(CC1)N=C(c1cccc(C(F)(F)F)c1F)NC2=O [Compound 248, 2-(2-fluoro-3-trifluoromethyl-phenyl)-8-{(E)-2-[2-methyl-4-(pyrrolidine-1-carbonyl)-phenyl]-ethenesulfonyl}-1,3,8-triaza-spiro[4.5]dec-1-en-4-one] |
| 71 | O=C1NC(c2ccc(Cl)cc2Cl)=NC12CCN(S(=O)(=O)/C=C/c1cccc3c1ccn3C[C@H](O)CO)CC2 [Compound 249, 2-(2,4-dichloro-phenyl)-8-{(E)-2-[1-((S)-2,3-dihydroxy-propyl)-1H-indol-4-yl]-ethenesulfonyl}-1,3,8-triaza-spiro[4.5]dec-1-en-4-one] |
| 62 | O=C1NC(c2ccc(Cl)cc2)=NC12CCN(S(=O)(=O)/C=C/c1cccc3c1ccn3C[C@H](O)CO)CC2 [Compound 250, 2-(4-chloro-phenyl)-8-{(E)-2-[1-((S)-2,3-dihydroxy-propyl)-1H-indol-4-yl]-ethenesulfonyl}-1,3,8-triaza-spiro[4.5]dec-1-en-4-one] |
| 28 | O=C1NC(C2CCCCC2)=NC12CCN(S(=O)(=O)CC/C=C/c1cccc3[nH]ccc13)CC2 [Compound 251, 2-Cyclohexyl-8-[(E)-4-(1H-indol-4-yl)-but-3-ene-1-sulfonyl]-1,3,8-triaza-spiro[4.5]dec-1-en-4-one] |
| 28 | O=C1NC(C2CCCCC2)=NC12CCN(S(=O)(=O)CCC/C=C/c1cccc3[nH]ccc13)CC2 [Compound 252, 2-Cyclohexyl-8-[(E)-5-(1H-indol-4-yl)-pent-4-ene-1-sulfonyl]-1,3,8-triaza-spiro[4.5]dec-1-en-4-one] |
| 54 | O=C1NC(C2CCCCC2)=NC12CCN(S(=O)(=O)C/C=C/c1cccc3c1ccn3C[C@H](O)CO)CC2 [Compound 253, 2-Cyclohexyl-8-{(E)-3-[1-((S)-2,3-dihydroxy-propyl)-1H-indol-4-yl]-prop-2-ene-1-sulfonyl}-1,3,8-triaza-spiro[4.5]dec-1-en-4-one] |
| 67 | Cc1c(/C=C/S(=O)(=O)N2CCC3(CC2)N=C(c2cccc(OC(F)(F)F)c2)NC3=O)cccc1OCCO [Compound 256, 8-{(E)-2-[3-(2-Hydroxy-ethoxy)-2-methyl-phenyl]-ethenesulfonyl}-2-(3-trifluoromethoxy-phenyl)-1,3,8-triaza-spiro[4.5]dec-1-en-4-one] |
| 42 | CC(=O)N(CCO)c1ccc(C)c(/C=C/S(=O)(=O)N2CCC3(CC2)N=C(c2cccc(OC(F)(F)F)c2)NC3=O)c1 [Compound 257, N-(2-hydroxy-ethyl)-N-(4-methyl-3-{(E)-2-[4-oxo-2-(3-trifluoromethoxy-phenyl)-1,3,8-triaza-spiro[4.5]dec-1-ene-8-sulfonyl]-vinyl}-phenyl)-acetamide] |
| 87 | Cc1cc(N2C(=O)CC[C@@H]2CO)cc(C)c1/C=C/S(=O)(=O)N1CCC2(CC1)N=C(c1cccc(OC(F)(F)F)c1)NC2=O [Compound 258, 8-{(E)-2-[4-((R)-2-hydroxymethyl-5-oxo-pyrrolidin-1-yl)-2,6-dimethyl-phenyl]-ethenesulfonyl}-2-(3-trifluoromethoxy-phenyl)-1,3,8-triaza-spiro[4.5]dec-1-en-4-one] |

| SMILES | cAMP production activity (%) |
| --- | --- |
| Cc1cc(OCCC(O)CO)ccc1/C=C/S(=O)(=O)N1CCC2(CC1)N=C(c1cccc(C(F)(F)F)c1F)NC2=O (stereo not shown) [Compound 247, 8-{(E)-2-[4-(3,4-Dihydroxy-butoxy)-2-methyl-phenyl]-ethenesulfonyl}-2-(2-fluoro-3-trifluoromethyl-phenyl)-1,3,8-triaza-spiro[4.5]dec-1-en-4-one] | 81 |
| Cc1c(/C=C/S(=O)(=O)N2CCC3(CC2)N=C(c2cccc(OC(F)(F)F)c2)NC3=O)cccc1OCCC(O)CO (stereo not shown) [Compound 254, 8-{(E)-2-[3-(3,4-Dihydroxy-butoxy)-2-methyl-phenyl]-ethenesulfonyl}-2-(3-trifluoromethoxy-phenyl)-1,3,8-triaza-spiro[4.5]dec-1-en-4-one] | 97 |
| Cc1ccc(OCCC(O)CO)cc1/C=C/S(=O)(=O)N1CCC2(CC1)N=C(c1cccc(OC(F)(F)F)c1)NC2=O (stereo not shown) [Compound 255, 8-{(E)-2-[5-(3,4-dihydroxy-butoxy)-2-methyl-phenyl]-ethenesulfonyl}-2-(3-trifluoromethoxy-phenyl)-1,3,8-triaza-spiro[4.5]dec-1-en-4-one] | 64 |
